Assay results as given in patent US5734081A, “Arylthio compounds” (Warner-Lambert Company, priority 1995, dated 1998).
pEC50: −log10 of the molar value.

Legend:
[1] = molecular target: T1, HIV-1 Nucleocapsid Protein (NCp7) (Human immunodeficiency virus type 1 group M subtype B, UniProt P12493); assay: Zinc extrusion assay (TSQ fluorescence) from the zinc fingers of HIV-1 nucleocapsid protein (NCp7); format: biochemical; settings: 10 μM compound, 2.8 μM NCp7, pH 7.4, 26° C., 90 minutes
T1 construct: The NCp7 protein containing 2 Zn-fingers and 2 Zn ions is incubated with drug
Source text: The compounds of the present invention cause the extrusion of zinc from the nucleocapsid protein (NCp7) of HIV-1. The NC protein is highly conserved among all retroviruses (South T., Blake P., et al., Biochemistry, 1990;29:7786) and is essential for viral infectivity (Aldovini A. and Young R., J. Virology, 1990;64:1920 and Gorelick R., Nigida S., et al., J. Virology, 1990;64:3207). The zinc is normally held in NC proteins by 1 or 2 zinc fingers. In the case of HIV-1, 2 zinc fingers are present (Summers M., South T., et al., Biochemistry, 1990;29:329) and are involved specifically with the PSI site on viral RNA which controls the packaging of viral RNA. Interference of this packaging causes the formation of non-infectious virions (Dannull J., Surovoy A., et al., EMBO, 1994;13:1525). It has previously been shown that compounds that cause zinc extrusion have potent anti-HIV activity in multiple cell lines and against all retroviruses (Rice W., Schaeffer C., et al., Nature, 1993;361:473).
A fluorescence-based assay has been developed to monitor the ejection of zinc from purified HIV-1 NCp7. The fluorophore, N-(6-methoxy-8-quinolyl)-p-toluenesulfonamide (TSQ), has an increased fluorescent signal upon bonding zinc ion in solution. The NCp7 protein containing 2 Zn-fingers and 2 Zn ions is incubated with drug causing the extrusion of Zn ions. The released Zn is then sequestered by the TSQ and the increased fluorescence monitored relative to control. […] Fluorescence (excitation 355 nm emission 400 nm) was monitored versus time. Controls were the NCp7 under assay conditions without drug, and apo NCp7 (no Zn) with drug. The % Zn extrusion was calculated based on the actual fluorescence measured divided by the fluorescence of all theoretical Zn extruded (5.6 μM)×100.
Table 1 below presents data for several invention compounds evaluated in the zinc extrusion assay described above.

[2] = CEM cell growth inhibition (XTT, noninfected cells); format: cell-based; settings: human, CEM Cell Assay, drug alone, read-out: IC50 (Inhibitory Concentration where drug alone inhibits cell growth)
Description: (§1) Yet another test system employed to determine antiviral activity is called the CEM cell assay.
(§2) T4 lymphocytes (CEM cell line) are exposed to HIV at a virus to cell ratio approximately 0.05, and plated along with noninfected control cells in 96-well microliter plates.
(§3) The candidate agent is dissolved in dimethyl sulfoxide (unless otherwise noted), then diluted 1:200 in cell culture medium. Further dilutions (half-log10) are prepared before adding to an equal volume of medium containing either infected or noninfected cells. Cultures are incubated at 37° in a 5% carbon dioxide atmosphere for 6 or 7 days. The tetrazolium salt, XTT, is added to all wells, and cultures are incubated to allow formazan color development by viable cells (J. National Cancer Institute, 1989;81:577-586). Individual wells are analyzed spectrophotometrically to quantitate formazan production, and in addition are viewed microscopically for detection of viable cells confirmation of protective activity.
(§4) Drug-tested virus-infected cells are compared with drug-treated noninfected cells and with other appropriate controls (untreated infected and untreated noninfected cells, drug-contain wells without cells, etc.) on the same plate. Data are reviewed in comparison with other tests done at the same time and a determination about activity is made.

HIV-1 [3] = assay: CEM cell assay, anti-HIV-1 activity; format: cell-based; settings: Human immunodeficiency virus 1, CCRF-CEM, HIV-1, 6 or 7 days, read-out: EC50 (Effective Concentration which protects cells from viral cytopathic effects)
Source text: The test systems utilized to establish the antiviral activity of the arylthio compounds of this invention are well recognized in the art and are routinely employed for such purpose. For example, the assay utilized to evaluate the compounds activity against the HIV virus is that employed by the U.S. National Cancer Institute as described by Weislow O. S., et al., J. Natl. Cancer Inst., 1989;81:577-586, incorporated herein by reference.
The procedure is designed to detect agents acting at any stage of the virus reproductive cycle. The assay basically involves the killing of T4 lymphocytes by HIV. Small amounts of HIV are added to cells, and at least two complete cycles of virus reproduction are necessary to obtain the required cell killing. Agents which interact with virions, cells, or virus gene-products to interfere with viral activities will protect cells from cytolysis. The system is automated in several features to accommodate large numbers of candidate agents, and is generally designed to detect anti-HIV activity. However, compounds which degenerate or are rapidly metabolized in the culture conditions may not show activity in this screen.
as §1, §2, §3, §4

HIV-1 [4] = assay: HIV H9 cell assay, anti-HIV-1 activity; format: cell-based; settings: Human immunodeficiency virus 1, H9, 168 h, read-out: EC50 (Effective Concentration which protects cells from viral cytopathic effects)
Source text: Another test system utilized to evaluate the invention compounds is called HIV H9 assay. The HIV H9 cell assay measures the inhibitor concentration required to suppress HIV-1 virus replication. In this system, viral growth occurs through multiple rounds of the life-cycle. Any suppression of the replication kinetics results in a geometric decrease in virus production. As a result, this assay is a sensitive means of measuring the ability of a compound to inhibit HIV-1 viral replication.
(§5) The H9 T-cell line is batch infected with HIV virus at an M0I of 0.01. After 2 hours absorption, the cells are washed, resuspended in RPMI-1640/10% fetal calf serum, and seeded at […] of a 96-well plate. A duplicate plate of uninfected H9 cells is prepared for the cytotoxicity assay. Drugs are serially diluted 1/3.16 in DMSO, transferred to media at an 8× concentration, and then added to the cultures in triplicate. The final DMSO concentration of 0.002 (0.2%).
(§6) Viral production is measured by RT assay and cytotoxicity is measured by XTT assay at 7 days post-infection. The RT assay is performed as a modification of Borroto-Esoda and Boone, J. Virol., 1991;65:1952-1959 and quantitated using a Molecular Dynamics Phosphoimager with Imagequant software. The XTT assay is performed as a modification of Roehm, et al., J. Immuno. Methods., 1991;142:257-265 and quantitated using a molecular Devices Thermomax plate reader with Softmax software.
(§7) Data is electronically transferred to a Microsoft Excell spreadsheet for analysis. The RT assay values equivalent to 50% and 90% inhibition of virus production are calculated from the untreated controls. The concentrations of inhibitor required to produce these values (IC50 and IC90) are interpolated from data points flanking these RT activities. The XTT assay values equivalent to 50% cytotoxicity are calculated from the untreated controls. The concentrations of inhibitor required to produce this value are interpolated from data points flanking these XTT values.

[5] = H9 cell cytotoxicity (XTT assay, uninfected cells); format: cell-based; settings: human, drug alone, read-out: IC50 (Inhibitory Concentration where drug alone inhibits cell growth)
Description: as §5, §6, §7

CC(=O)N[C@@H](CSSc1ccccc1C(=O)Nc1ccc(S(N)(=O)=O)cc1)C(=O)O [Example 134, 2-Acetylamino-3-[2-(4-sulfamoylphenylcarbamoyl)phenyldisulfanyl]-propionic acid]
% Zinc Extrusion Relative to Control [1]: 77% | CC50 [2]: > 100 µM | pEC50 (HIV-1 [3]): 5.16

COC(=O)[C@H](CSSc1ccccc1C(=O)Nc1ccc(S(N)(=O)=O)cc1)NC(C)=O [Example 133, 2-Acetylamino-3-[2-(4-sulfamoylphenylcarbamoyl)phenyldisulfanyl]-propionicacid, methyl ester]
% Zinc Extrusion Relative to Control [1]: 53% | CC50 [2]: 69 µM | pEC50 (HIV-1 [3]): 5.17

O=C(O)CCNC(=O)c1ccccc1SSc1ccccc1C(=O)NCCC(=O)O [Example 76, 3,3'-[Dithiobis(2,1-phenylenecarbonylimino)]bis-propionic acid]
% Zinc Extrusion Relative to Control [1]: 82% | CC50 [2]: > 100 µM | pEC50 (HIV-1 [3]): 5.21

NC(=O)c1cc(NC(=O)c2ccccc2)ccc1SSc1ccc(NC(=O)c2ccccc2)cc1C(N)=O [Example 75, 2,2'-Dithiobis[5-(benzoylamino)-benzamide]]
% Zinc Extrusion Relative to Control [1]: 52% | CC50 [2]: 59 µM | pEC50 (HIV-1 [3]): 5.28

COC(=O)[C@H](N)C(C)(C)SSc1ccccc1C(=O)Nc1ccc(S(N)(=O)=O)cc1 [Example 139, 2-Amino-3-methyl-3-[2-(4-sulfamoylphenylcarbamoyl)phenyldisulfanyl]-butyric acid, methyl ester]
% Zinc Extrusion Relative to Control [1]: 70% | CC50 [2]: > 100 µM | pEC50 (HIV-1 [3]): 5.16

NS(=O)(=O)c1ccc(NC(=O)c2ccc(SSc3ccc(C(=O)Nc4ccc(S(N)(=O)=O)cc4)cc3)cc2)cc1 [Reference Compound, 4,4dithiobis-4sulfamoyl benzanilide, reference compound]
pEC50 (HIV-1 [4]): < 4.00 | % Zinc Extrusion Relative to Control [1]: 0% | CC50 [2]: > 100 µM | CC50 at 168 h [5]: > 100 µM | pEC50 (HIV-1 [3]): < 4.00

CC(=O)Nc1ccc(S)c(C(N)=O)c1 [Example 10, 5-Acetylamino-2-thiobenzamide]
pEC50 (HIV-1 [4]): 5.27 | CC50 at 168 h [5]: > 100 µM

CCC(C)C(NC(=O)c1ccccc1SSc1ccccc1C(=O)NC(C(=O)O)C(C)CC)C(=O)O (racemic) [Example 5, 2-[[2-[(1-Carboxy-2-methylbutylcarbamoyl)phenyldisulfanyl]-benzoyl]-amino]-3-methylpentanoic acid]
pEC50 (HIV-1 [4]): 5.85 | % Zinc Extrusion Relative to Control [1]: 87% | CC50 [2]: 105 µM | CC50 at 168 h [5]: 62 µM | pEC50 (HIV-1 [3]): 4.98

NC(=O)c1cc(NC(=O)C(F)(F)F)ccc1SSc1ccc(NC(=O)C(F)(F)F)cc1C(N)=O [Example 74]
% Zinc Extrusion Relative to Control [1]: 59% | CC50 [2]: 67 µM | pEC50 (HIV-1 [3]): 5.20

CC(SSc1ccccc1C(=O)Nc1ccc(S(N)(=O)=O)cc1)C(=O)NCC(=O)O (centres unmarked) [Example 135, {2-[2-(4-Sulfamoylphenylcarbamoyl)phenyldisulfanyl]propionylamino}-acetic acid]
% Zinc Extrusion Relative to Control [1]: 40% | CC50 [2]: > 100 µM | pEC50 (HIV-1 [3]): 5.24

CN(C(=O)c1ccccc1SSc1ccccc1C(=O)N(C)c1ccc(S(N)(=O)=O)cc1)c1ccc(S(N)(=O)=O)cc1 [Example 142]
% Zinc Extrusion Relative to Control [1]: 84% | CC50 [2]: > 100 µM | pEC50 (HIV-1 [3]): 4.77

NS(=O)(=O)c1ccc(CNC(=O)c2ccccc2SSc2ccccc2C(=O)NCc2ccc(S(N)(=O)=O)cc2)cc1 [Example 12, 2,2'-Dithiobis[N-[[4-(aminosulfonyl)phenyl]methy]benzamide]]
% Zinc Extrusion Relative to Control [1]: 27% | CC50 [2]: 21 µM | pEC50 (HIV-1 [3]): 6.23

NS(=O)(=O)c1cc(Cl)ccc1SSc1ccc(Cl)cc1S(N)(=O)=O [Example 148, 2,2'-Dithiobis[5-chloro]-benzenesulfonamide]
% Zinc Extrusion Relative to Control [1]: 92% | CC50 [2]: 30 µM | pEC50 (HIV-1 [3]): 4.92

O=C(N[C@@H](C(=O)O)c1ccccc1)c1ccccc1SSc1ccccc1C(=O)N[C@@H](C(=O)O)c1ccccc1 [Example 68, [R-(R*,R*)] (2-{2-[(Carboxy-phenyl-methyl)-carbamoyl]phenyldisulfanyl}-benzoylamino)-phenyl-acetic acid]
% Zinc Extrusion Relative to Control [1]: 89% | CC50 [2]: > 100 µM | pEC50 (HIV-1 [3]): 4.60

O=C(Nc1ccc(S(=O)(=O)Nc2ncccn2)cc1)c1ccccc1SSc1ccccc1C(=O)Nc1ccc(S(=O)(=O)Nc2ncccn2)cc1 [Example 15, 2,2'-Dithiobis[N-[4-[(2-pyrimidinylamino)sulfonyl]phenyl]-benzamide]]
pEC50 (HIV-1 [4]): 5.70 | % Zinc Extrusion Relative to Control [1]: 72% | CC50 at 168 h [5]: 22 µM

CC(SSc1ccccc1C(=O)Nc1ccc(S(N)(=O)=O)cc1)C(=O)O (centres unmarked) [Example 132, 2-[2-(4-Sulfamoylphenylcarbamoyl)phenyldisulfanyl]propionic acid]
% Zinc Extrusion Relative to Control [1]: 70% | CC50 [2]: > 100 µM | pEC50 (HIV-1 [3]): 5.55

NS(=O)(=O)c1ccc(NC(=O)c2ccc(F)cc2SSc2cc(F)ccc2C(=O)Nc2ccc(S(N)(=O)=O)cc2)cc1 [Example 16, 2,2'-Dithiobis[N-[4-(aminosulfonyl)phenyl]-4-fluorobenzamide]]
CC50 [2]: 66 µM | pEC50 (HIV-1 [3]): 5.60
